From patent publication US7488716B2 (priority 2001, dated 2009)
pIC50: −log10 of the molar value. Where a SMILES comes first, the peptide text is derived from it. The star is where a group is joined. Palmitoyl = CCCCCCCCCCCCCCCC(=O)*

Legend:
perfused rat islets = experiment: Insulin secretion by perfused rat islets; format: cell-based; conditions: 50 nM peptide, 8 mM glucose
Protocol: Sprague Dawley rats (275-320 g) were used as the source of donor islets. Briefly, the pancreas was filled with 10 ml of cold reconstituted Liberase RI (Boehringer Manheim), harvested and incubated with additional 5 ml enzyme solution in water bath for 30 minutes. Tissue suspension was washed twice with cold 10% FBS/Hanks buffer (Gibco), resuspended in 8 ml 25% ficoll (Sigma) and then layered with 5 ml each of 23%, 20% and 11% ficoll. The islets in the 20% layer after centrifugation were removed, washed twice with cold 10% FBS/Hank buffer and resuspended in 10% FBS/RPMI 1640 media (Sigma).
Insulin secretion of perfused rat islets mediated by some peptides of the invention was measured as follows. The bi-phasic responses of insulin release stimulated by these polypeptides were tested by islet perfusion. Fifty islets were loaded in the perifusion chamber and perifused with HEPES-KRB containing 3 mM glucose at 37° C. After 60 min, islets were exposed to buffer containing 8 mM glucose with or without peptide (50 nM) and perifused for another 30 min. Fractions of perifusate were collected at 1 or 5 minute intervals for insulin determination. Insulin was measured using an ELISA kit (Alpco Diagnostics, Windham, N.H.).

GLP-1 receptor [1] = molecular target: T1, GLP-1 receptor (Rattus norvegicus, UniProt P32301); experiment: Peptide signaling through GLP-1 receptor, cAMP scintillation proximity assay in RINm5F cells; format: cell-based; conditions: for GLP1 Relative Potency: EC50 of native GLP-1 (7-36) divided by EC50 of polypeptide x 100, cAMP in RINm5F cells; for Emax: RIN-m5F, read-out: % GLP1 max
T1 construct: endogenous in cells; host or cells: RINm5F cells
T1 sequence (P32301 22-463): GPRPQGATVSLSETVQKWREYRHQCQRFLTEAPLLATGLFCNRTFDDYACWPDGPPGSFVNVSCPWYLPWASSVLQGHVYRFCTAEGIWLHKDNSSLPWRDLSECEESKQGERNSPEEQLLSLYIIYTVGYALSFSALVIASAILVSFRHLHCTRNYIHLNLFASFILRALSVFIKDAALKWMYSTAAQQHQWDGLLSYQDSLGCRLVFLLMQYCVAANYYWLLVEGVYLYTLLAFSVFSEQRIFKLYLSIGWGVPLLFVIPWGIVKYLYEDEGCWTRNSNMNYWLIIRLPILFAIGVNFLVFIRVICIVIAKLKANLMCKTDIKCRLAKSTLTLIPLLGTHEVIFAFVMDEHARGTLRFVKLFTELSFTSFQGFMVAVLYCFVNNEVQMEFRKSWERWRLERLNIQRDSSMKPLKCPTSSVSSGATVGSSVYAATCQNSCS
Protocol: The media was removed and the cells were washed twice with PBS. […] For assay of peptides conjugated with fatty acid, the BSA was omitted from the incubation buffer. The incubation buffer was removed, and the cells were lysed in the lysis reagent provided with the cAMP Scintillation Proximity Assay (SPA) direct screening assay system (Amersham Pharmacia Biotech Inc, Piscataway, N.J.). The amount of cAMP (in pmol) present in the lysates was determined following instructions provided with this kit.
The amount of cAMP (in pmol) produced at each concentration of peptide was plotted and analyzed by nonlinear regression using Prizm software to determine the EC50 for each peptide.

glucagon receptor = molecular target: T2, glucagon receptor (Rattus norvegicus, UniProt P30082); experiment: Competitive binding of peptide to the glucagon receptor in rat liver plasma membranes (125I glucagon)
T2 construct: glucagon receptor present in the plasma membranes isolated from rat liver; from tissue; host or cells: rat liver plasma membranes
Protocol: The wet weight of the livers was determined and the tissue minced in 5 volumes of ice cold TES buffer and a slurry prepared using a polytron. All buffers and spins were kept at 4° C. The slurry was further homogenized using three strokes of a handheld dounce homogenizer. The homogenate was passed through several layers of cheesecloth and spun at 25,000×g for 10 minutes. Pellets were homogenized in 22.1 ml TES buffer using 10 strokes of a handheld dounce homogenizer. Twenty-seven point nine milliliters of 2.4 M sucrose in TE was added and mixed well. The homogenate was distributed among several tubes, and each tube was overlaid with 7 ml of TES buffer. The tubes were spun at 120,000×g for 60 minutes. The plasma membranes were removed from the interface that formed during the spin, diluted in TES and concentrated using a 15 minute spin at 200,000×g. The resulting pellet was again homogenized in 9.8 ml TES buffer, combined with 10.3 ml 2.4M sucrose, overlaid with 7 ml TES, and centrifuged at 180,000×g for 30 min. […] The final pellet was resuspended in TES. Plasma membranes were stored at −80° C. until ready for use.
(§1) Competitive binding of some polypeptides of the invention to rat liver plasma membranes was measured as follows. Ninety-six-well GF/C filtration plates (Millipore, Bedford, Mass.) were blocked with 0.1% PEI for at least one hour and washed twice with binding buffer consisting of 20 mM Tris, 2 mM EDTA, pH 7.5, 1 mg/ml BSA, and 1 mg/ml bacitracin. […] The plates were dried, scintillant was added to each well, and cpm per well determined using a Wallac Microbeta counter.

GLP-1 receptor [2] = molecular target: T1, GLP-1 receptor; experiment: Competitive binding of peptide to the GLP-1 receptor in RINm5F cell plasma membranes (125I GLP-1); conditions: read-out: GLP1 RIN IC50
Protocol: Flasks of RINm5F cells were washed with PBS, scraped in 20 mM Hepes-1 mM EDTA-250 mM sucrose buffer containing protease inhibitors (HES) and homogenized in a dounce homogenizer followed by repeated resuspension through a 23 gauge needle. Unbroken cells and nuclei were removed by centrifugation at 500×g for 5 minutes. The pellet was resuspended in HES buffer using a 23 gauge needle and the centrifugation was repeated. The supernatants from the two spins were combined and centrifuged at 40,000×g for 20 min. The resulting plasma membrane pellet was resuspended in HES buffer using a 23 gauge needle followed by a 25 gauge needle. Membranes were stored at −80° C. until use.
as §1, with “RINm5F cell” for “rat liver”, “0.3%” for “0.1%”

[3] = Intraperitoneal glucose tolerance testing (IPGTT) in rats or mice; format: in vivo; conditions: ipGTT in mice 3 hours post dosing with 100 μg/kg peptide
Protocol: Blood glucose levels during intraperitoneal glucose tolerance testing in rats or mice by some polypeptides of the invention were measured as follows. The in vivo activity of the polypeptides of the invention when administered subcutaneously was examined in rats or mice. Rats or mice fasted overnight were given a subcutaneous injection of control or peptide (100 μg/kg). Basal blood glucose was measured prior to administration of peptides or three or 17 hours after administration of derivatized peptides, and the rats or mice were given 2 g/kg of glucose intraperitoneally. Blood glucose was measured again after 15, 30 and 60 minutes in rats or 30 and 60 minutes in mice.

T2 sequence (P30082 27-485): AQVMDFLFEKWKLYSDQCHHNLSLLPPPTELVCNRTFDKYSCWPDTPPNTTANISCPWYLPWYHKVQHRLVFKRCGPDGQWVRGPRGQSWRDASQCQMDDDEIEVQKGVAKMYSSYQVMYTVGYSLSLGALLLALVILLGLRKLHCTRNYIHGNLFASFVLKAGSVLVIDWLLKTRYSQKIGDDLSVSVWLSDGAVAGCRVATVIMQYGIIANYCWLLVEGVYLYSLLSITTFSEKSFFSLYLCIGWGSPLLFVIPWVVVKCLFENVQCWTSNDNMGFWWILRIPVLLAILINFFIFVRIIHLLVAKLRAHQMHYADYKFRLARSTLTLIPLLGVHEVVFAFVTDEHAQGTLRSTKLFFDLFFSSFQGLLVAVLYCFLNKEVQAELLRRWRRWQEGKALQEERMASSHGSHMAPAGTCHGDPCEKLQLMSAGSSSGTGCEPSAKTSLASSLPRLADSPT

| SMILES | GLP1 Relative Potency (GLP-1 receptor [1]) [%] | Emax (GLP-1 receptor [1]) [%] | pIC50 (glucagon receptor) | pIC50 (GLP-1 receptor [2]) | Increase of insulin secretion from perfused islets (perfused rat islets) | In vivo Decrease IpGTT AUC [3] [%] |
| --- | --- | --- | --- | --- | --- | --- |
| CC[C@H](C)[C@H](NC(=O)[C@H](Cc1ccccc1)NC(=O)[C@H](CCC(=O)O)NC(=O)[C@H](CCCCN)NC(=O)[C@H](C)NC(=O)[C@H](C)NC(=O)[C@H](CCC(N)=O)NC(=O)CNC(=O)[C@H](CCC(=O)O)NC(=O)[C@H](CC(C)C)NC(=O)[C@H](Cc1ccc(O)cc1)NC(=O)[C@H](CO)NC(=O)[C@H](CO)NC(=O)[C@@H](NC(=O)[C@H](CC(=O)O)NC(=O)[C@H](CO)NC(=O)[C@@H](NC(=O)[C@H](Cc1ccccc1)NC(=O)[C@@H](NC(=O)CNC(=O)[C@H](CCC(=O)O)NC(=O)[C@H](C)NC(=O)[C@@H](N)Cc1c[nH]cn1)[C@@H](C)O)[C@@H](C)O)C(C)C)C(=O)N[C@@H](C)C(=O)N[C@@H](Cc1c[nH]c2ccccc12)C(=O)N[C@@H](CC(C)C)C(=O)N[C@H](C(=O)N[C@@H](CCCCN)C(=O)NCC(=O)N[C@@H](CCCNC(=N)N)C(N)=O)C(C)C [GLP-1, reference compound] |  |  |  |  | approximately 2 fold |  |
| CCCCCCCCCCCCCCCC(=O)NCCCC[C@H](NC(=O)[C@H](CCCNC(=N)N)NC(=O)CNC(=O)[C@H](CCCCN)NC(=O)[C@@H](NC(=O)[C@H](CC(C)C)NC(=O)[C@H](Cc1c[nH]c2ccccc12)NC(=O)[C@H](C)NC(=O)[C@@H](NC(=O)[C@H](Cc1ccccc1)NC(=O)[C@H](CCC(=O)O)NC(=O)[C@H](CCCCN)NC(=O)[C@H](C)NC(=O)[C@H](CCCNC(=N)N)NC(=O)[C@H](CCCNC(=N)N)NC(=O)[C@H](C)NC(=O)[C@H](CC(=O)O)NC(=O)[C@H](CC(C)C)NC(=O)[C@H](Cc1ccc(O)cc1)NC(=O)[C@H](CCCCN)NC(=O)[C@H](C)NC(=O)[C@H](Cc1ccc(O)cc1)NC(=O)[C@H](CC(=O)O)NC(=O)[C@H](CO)NC(=O)[C@@H](NC(=O)[C@H](Cc1ccccc1)NC(=O)[C@@H](NC(=O)CNC(=O)[C@H](CCC(N)=O)NC(=O)[C@H](CO)NC(=O)[C@@H](N)Cc1c[nH]cn1)[C@@H](C)O)[C@@H](C)O)[C@@H](C)CC)C(C)C)C(=O)O [G88] (H-HSQGTFTSDYAKYLDARRAKEFIAWLVKGRK(Palmitoyl)-OH; N-terminus and C-terminus assumed) | 2.3 | 118 | 6.46 | 6.96 |  | 16 |

Continued by rising pIC50 (glucagon receptor), values first:

| GLP1 Relative Potency (GLP-1 receptor [1]) [%] | Emax (GLP-1 receptor [1]) [%] | pIC50 (glucagon receptor) | pIC50 (GLP-1 receptor [2]) | SMILES | Increase of insulin secretion from perfused islets (perfused rat islets) | In vivo Decrease IpGTT AUC [3] [%] |
| --- | --- | --- | --- | --- | --- | --- |
| 0.8 | 83.5 | 6.14 | 7.60 | CCCCCCCCCCCCCCCC(=O)NCCCC[C@H](NC(=O)[C@@H](NC(=O)[C@H](Cc1ccccc1)NC(=O)[C@H](CCC(=O)O)NC(=O)[C@H](CCCNC(=N)N)NC(=O)[C@H](C)NC(=O)[C@H](CCCNC(=N)N)NC(=O)[C@H](CCCNC(=N)N)NC(=O)[C@H](C)NC(=O)[C@H](CC(=O)O)NC(=O)[C@H](CC(C)C)NC(=O)[C@H](Cc1ccc(O)cc1)NC(=O)[C@H](CCCNC(=N)N)NC(=O)[C@H](C)NC(=O)[C@H](Cc1ccc(O)cc1)NC(=O)[C@H](CC(=O)O)NC(=O)[C@H](CO)NC(=O)[C@@H](NC(=O)[C@H](Cc1ccccc1)NC(=O)[C@@H](NC(=O)CNC(=O)[C@H](CCC(N)=O)NC(=O)[C@H](CO)NC(=O)[C@@H](N)Cc1c[nH]cn1)[C@@H](C)O)[C@@H](C)O)[C@@H](C)CC)C(=O)N[C@@H](Cc1c[nH]c2ccccc12)C(=O)N[C@@H](CC(C)C)C(=O)N[C@H](C(=O)N[C@@H](CCCNC(=N)N)C(=O)NCC(=O)N[C@@H](CCCNC(=N)N)C(=O)NCC(=O)O)C(C)C [G90] |  | 13 |
| 6.1 | 100 | 6.21 | 7.01 | CCCCCCCCCCCCCCCC(=O)NCCCC[C@H](NC(=O)[C@H](C)NC(=O)[C@H](CCCNC(=N)N)NC(=O)[C@H](CCCNC(=N)N)NC(=O)[C@H](C)NC(=O)[C@H](CC(=O)O)NC(=O)[C@H](CC(C)C)NC(=O)[C@H](Cc1ccc(O)cc1)NC(=O)[C@H](CCCCN)NC(=O)[C@H](C)NC(=O)[C@H](Cc1ccc(O)cc1)NC(=O)[C@H](CC(=O)O)NC(=O)[C@H](CO)NC(=O)[C@@H](NC(=O)[C@H](Cc1ccccc1)NC(=O)[C@@H](NC(=O)CNC(=O)[C@H](CCC(N)=O)NC(=O)[C@H](CO)NC(=O)[C@@H](N)Cc1c[nH]cn1)[C@@H](C)O)[C@@H](C)O)C(=O)N[C@@H](CCC(=O)O)C(=O)N[C@@H](Cc1ccccc1)C(=O)N[C@H](C(=O)N[C@@H](C)C(=O)N[C@@H](Cc1c[nH]c2ccccc12)C(=O)N[C@@H](CC(C)C)C(=O)N[C@H](C(=O)N[C@@H](CCCCN)C(=O)NCC(=O)N[C@@H](CCCNC(=N)N)C(N)=O)C(C)C)[C@@H](C)CC [G87] (H-HSQGTFTSDYAKYLDARRAK(Palmitoyl)EFIAWLVKGR-NH2; N-terminus assumed) |  | 13 |
| 1.4 | 104 | 6.66 | 7.90 | CCCCCCCCCCCCCCCC(=O)NCCCC[C@H](NC(=O)CNC(=O)[C@H](CCCNC(=N)N)NC(=O)CNC(=O)[C@H](CCCNC(=N)N)NC(=O)[C@@H](NC(=O)[C@H](CC(C)C)NC(=O)[C@H](Cc1c[nH]c2ccccc12)NC(=O)[C@H](CCCCN)NC(=O)[C@@H](NC(=O)[C@H](Cc1ccccc1)NC(=O)[C@H](CCC(=O)O)NC(=O)[C@H](CCCNC(=N)N)NC(=O)[C@H](C)NC(=O)[C@H](CCCNC(=N)N)NC(=O)[C@H](CCCNC(=N)N)NC(=O)[C@H](C)NC(=O)[C@H](CC(=O)O)NC(=O)[C@H](CC(C)C)NC(=O)[C@H](Cc1ccc(O)cc1)NC(=O)[C@H](CCCNC(=N)N)NC(=O)[C@H](C)NC(=O)[C@H](Cc1ccc(O)cc1)NC(=O)[C@H](CC(=O)O)NC(=O)[C@H](CO)NC(=O)[C@@H](NC(=O)[C@H](Cc1ccccc1)NC(=O)[C@@H](NC(=O)CNC(=O)[C@H](CCC(N)=O)NC(=O)[C@H](CO)NC(=O)[C@@H](N)Cc1c[nH]cn1)[C@@H](C)O)[C@@H](C)O)[C@@H](C)CC)C(C)C)C(=O)O [G182] (H-HSQGTFTSDYARYLDARRAREFIKWLVRGRGK(Palmitoyl)-OH; N-terminus and C-terminus assumed) |  | 14 |
